Reference: patent publication US11339144B2 (Navitor Pharmaceuticals, Inc., priority 2017, dated 2022)

Columns and labels:
[1] = target: Rheb (Homo sapiens (Human), UniProt Q15382); assay: Affinity Selection Mass Spectrometry (ASMS); assay type: binding; details: affinity (R3/R0) in Affinity Selection Mass Spectrometry assay
Method: Method 2 (Affinity Selection Mass Spectrometry
Protein: Rheb (19 KDa) in the following buffer: 20 mM Tris, pH 8.0, 200 mM NaCl, 2 mM DTT, 5 mM MgCl2 was prepared as under.
Human Rheb protein (I-169) was purified from BL21 (DE3) E. coli using a His-Smt-Rheb expression vector. The cell paste was lysed in lysis buffer (50 mM HEPES pH 7.5, 0.5 M NaCl, 5% Glycerol, 1% CHAPS, EDTA free protease inhibitor tablets, lysozyme to 1 mg/mL, benzonase 250U), sonicated, and purified on a HiTrap Ni Chelating Column (GE Healthcare) using the following buffer: 50 mM HEPES pH 7.5, 0.5 M NaCl, 5% Glycerol, and imidazole increasing in concentration from 5 mM to 500 mM. The His-Smt tag was cleaved using a U1p1 enzyme and dialyzed into 50 mM HEPES pH 7.5, 0.5 M NaCl, 5% Glycerol. The resultant protein was again purified on a Ni Chelating column to remove the U1p1 enzyme and His-Smt tag and then purified by size exclusion chromatography on a Sephacryl S-100 26/60 column into the following final buffer: 20 mM NaPhos pH 7.0, 100 mM NaCl, 5 mM MgCl2, 2 mM TCEP.
Concentrations: 60 μM Rheb, 180 μM GDP and 2 μM of each compound,
Ultrafiltration Filter (Sartorius, Germany) MW cutoff: 10 KDa
• (a) Sample preparation: Prepare sample for each group in 1.5 mL microcentrifuge tube according to the experimental design, total volume 550 μL. In a standard ASMS experiment there are two groups: Protein plus (P+L+) and protein minus (P−L+). • (b) Transfer 50 μL from the 550 μL to a vial as R0 sample. Incubate the rest solution for 30 min at room temperature. Then transfer the 500 μL into an ultrafiltration filter tube and centrifuge at 12×10^3 rpm for ˜10 min, leave about 50 μL solution (otherwise adjust this time). • (c) Add incubation buffer to the ultrafiltration filter tube to about 500 μL. Stir gently and centrifuge mixtures as above, leave about 50 μL solution. • (d) Repeat the step c. Transfer the remaining 50 μL upper layer solution to a new vial as R^3 sample. Sample Extraction: Add 150 μL MeCN to denature the protein completely. Centrifuge at 12×10^3 rpm for 5 min. Transfer the supernatant into LC-MS auto sampler vials for LC-MS analysis (5 uL injection).
Waters Acquity UPLC system, Waters ACQUITY UPLC BEH C18 column (2.1×50 mm, 1.7 μM); Mobile phase A: 0.1% formic acid solution, B: MeCN; 0.3 mL/min, 5 μL injection, gradient elution (Table 5).
Waters Synapt G1 Q-TOF system, positive or negative ion scan modes; Capillary voltage: 3.0 kV; Method: MSE; Mass range: m/z=100-1000; Source temperature: 120° C.; Desolvation temperature: 400° C.; Collision voltage: 35 V; Sampling Cone: 35 V; Extraction Cone: 4.0 V; Cone Gas: 50 L/h; Desolvation Gas: 800 L/h.

[2] = target: HA-GST-Rheb (GTP-γ-S loaded) activating mTORC1 (Homo sapiens (Human), UniProt Q15382); assay: Rheb-dependent in vitro kinase assay (Rheb-IVK; LanthaScreen or Western readout); assay type: biochemical; details: Rheb-dependent in vitro kinase assay; read-out: IVK IC50
Sequence of HA-GST-Rheb (GTP-γ-S loaded) activating mTORC1 (Q15382 1-181): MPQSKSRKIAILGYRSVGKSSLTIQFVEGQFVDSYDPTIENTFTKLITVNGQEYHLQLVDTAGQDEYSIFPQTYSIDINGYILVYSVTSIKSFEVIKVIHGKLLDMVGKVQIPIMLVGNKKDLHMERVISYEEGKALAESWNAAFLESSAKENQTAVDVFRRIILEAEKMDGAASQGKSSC

Sequence of Rheb (Q15382 1-169 limits assumed): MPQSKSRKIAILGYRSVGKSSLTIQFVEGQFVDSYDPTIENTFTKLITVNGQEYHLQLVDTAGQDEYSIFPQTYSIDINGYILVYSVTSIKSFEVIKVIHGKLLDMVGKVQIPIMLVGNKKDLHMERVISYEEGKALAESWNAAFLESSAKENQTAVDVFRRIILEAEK

IC50 [2] [µM] | Molecule | ASMS (R3/R0) [1]
10 to 100 | 1-(4-carboxybenzyl)-6-chloro-4-(3,4-dichlorophenoxy)-1H-indole-2-carboxylic acid [I-140] | B (an affinity (R3/R0) between 100% and 20%)
< 10 | 4-bromo-6-(3,4-dichlorophenylthio)-1-(4-((2-hydroxyethyl)(methyl)carbamoyl)benzyl)-1H-indole-2-carboxylic acid [I-51] | B (an affinity (R3/R0) between 100% and 20%)
< 10 | 7-chloro-6-(3,4-dichlorophenylthio)-4-fluoro-1H-indole-2-carboxylic acid [I-66] | B (an affinity (R3/R0) between 100% and 20%)
10 to 100 | CC(=O)N[C@@H]1CCCC[C@@H]1COc1c(Cl)c(Cl)cc2[nH]c(CO)nc12 (racemic) [I-369] | C (an affinity (R3/R0)<20%)
100 to 300 | N[C@@H]1CCCC[C@@H]1COc1c(Cl)c(Cl)cc2[nH]c(CO)nc12 (racemic) [I-376, (4-(((+,−)-cis-2-aminocyclohexyl)methoxy)-5,6-dichloro-1H-benzo[d]imidazol-2-yl)methanol] | C (an affinity (R3/R0)<20%)
> 100 | OCc1nc2c(OC[C@H]3CNCC[C@@H]3O)c(Cl)c(Cl)cc2[nH]1 (racemic) [I-385] | C (an affinity (R3/R0)<20%)
> 100 | OCc1nc2c(OC[C@H]3CNCC[C@H]3O)c(Cl)c(Cl)cc2[nH]1 (racemic) [I-386] | C (an affinity (R3/R0)<20%)
10 to 100 | OCc1nc2c(OC[C@H]3CCCC[C@H]3O)c(Cl)c(Cl)cc2[nH]1 (racemic) [I-394, (+,−)-cis-2-((5,6-dichloro-2-(hydroxymethyl)-1H-benzo[d]imidazol-4-yloxy)methyl)cyclohexanol] | B (an affinity (R3/R0) between 100% and 20%)
10 to 100 | OCc1nc2c(OC[C@H]3CCCC[C@@H]3O)c(Cl)c(Cl)cc2[nH]1 (single isomer, unassigned) [I-388] | B (an affinity (R3/R0) between 100% and 20%)
> 100 | OCc1nc2c(OC[C@H]3CCCC[C@H]3O)c(Cl)c(Cl)cc2[nH]1 (single isomer, unassigned) [I-389] | C (an affinity (R3/R0)<20%)
10 to 100 | CN(C)C(=O)c1ccc(Cn2c(C(=O)O)cc3c(Br)nc(Sc4ccc(Cl)c(Cl)c4)cc32)cc1 [I-3, 4-bromo-6-(3,4-dichlorophenylthio)-1-(4-(dimethylcarbamoyl)benzyl)-1H-pyrrolo[3,2-c]pyridine-2-carboxylic acid] | B (an affinity (R3/R0) between 100% and 20%)
10 to 100 | CN(C)C(=O)c1ccc(Cn2c(C(=O)O)cc3c(Cl)nc(Sc4ccc(Cl)c(Cl)c4)cc32)cc1 [I-4, 4-chloro-6-(3,4-dichlorophenylthio)-1-(4-(dimethylcarbamoyl)benzyl)-1H-pyrrolo[3,2-c]pyridine-2-carboxylic acid] | B (an affinity (R3/R0) between 100% and 20%)
< 10 | CC(c1ccc(C(=O)N(C)C)cc1)n1c(C(=O)O)cc2c(Br)cc(Sc3ccc(Cl)c(Cl)c3)cc21 (stereo not shown) [I-5, 4-bromo-6-(3,4-dichlorophenylthio)-1-(1-(4-(dimethylcarbamoyl)phenyl)ethyl)-1H-indole-2-carboxylic acid] | B (an affinity (R3/R0) between 100% and 20%)
< 10 | CN(C)C(=O)c1ccc(Cn2c(C(=O)O)cc3ccc(Sc4ccc(Cl)c(Cl)c4)c(Br)c32)cc1 [I-6, 7-bromo-6-(3,4-dichlorophenylthio)-1-(4-(dimethylcarbamoyl)benzyl)-1H-indole-2-carboxylic acid] | B (an affinity (R3/R0) between 100% and 20%)
< 10 | CN(C)C(=O)c1ccc(Cn2c(C(=O)O)cc3c(C#N)cc(Sc4ccc(Cl)c(Cl)c4)cc32)cc1 [I-7, 4-cyano-6-(3,4-dichlorophenylthio)-1-(4-(dimethylcarbamoyl)benzyl)-1H-indole-2-carboxylic acid] | B (an affinity (R3/R0) between 100% and 20%)
< 10 | CN(C)C(=O)c1ccc(Cn2c(C(=O)O)cc3c(-c4ccccc4)cc(Sc4ccc(Cl)c(Cl)c4)cc32)cc1 [I-8, 6-(3,4-dichlorophenylthio)-1-(4-(dimethylcarbamoyl)benzyl)-4-phenyl-1H-indole-2-carboxylic acid] | A (an affinity (R3/R0)>100%)
< 10 | CN(C)C(=O)c1ccc(Cn2c(C(=O)O)cc3c4ccccc4c(Sc4ccc(Cl)c(Cl)c4)cc32)cc1 [I-9, 5-(3,4-dichlorophenylthio)-3-(4-(dimethylcarbamoyl)benzyl)-3H-benzo[e]indole-2-carboxylic acid] | A (an affinity (R3/R0)>100%)
< 10 | CN(C)C(=O)c1ccc(Cn2c(C(=O)O)cc3c(C4CC4)cc(Sc4ccc(Cl)c(Cl)c4)cc32)cc1 [I-10, 4-cyclopropyl-6-(3,4-dichlorophenylthio)-1-(4-(dimethylcarbamoyl)benzyl)-1H-indole-2-carboxylic acid] | A (an affinity (R3/R0)>100%)
> 3 | CN(C)C(=O)c1ccc(Cn2c(C(=O)O)cc3c(Br)cc(SC4CCCCC4)cc32)cc1 [I-11] | B (an affinity (R3/R0) between 100% and 20%)
10 to 100 | CN(C)C(=O)c1ccc(Cn2c(C(=O)O)cc3c(Br)cc(SC4CCOCC4)cc32)cc1 [I-12, 4-bromo-1-(4-(dimethylcarbamoyl)benzyl)-6-(tetrahydro-2H-pyran-4-ylthio)-1H-indole-2-carboxylic acid] | C (an affinity (R3/R0)<20%)
> 100 | CN(C)C(=O)c1ccc(Cn2c(C#N)cc3c(Br)cc(Sc4ccc(Cl)c(Cl)c4)cc32)cc1 [I-13] | B (an affinity (R3/R0) between 100% and 20%)
> 3 | CN(C)C(=O)c1ccc(Cn2c(-c3nn[nH]n3)cc3c(Br)cc(Sc4ccc(Cl)c(Cl)c4)cc32)cc1 [I-14] | B (an affinity (R3/R0) between 100% and 20%)
< 10 | CN(C)C(=O)c1ccc(Cn2c(C(=O)O)cc3c(Br)cc(Sc4ccc(Oc5ccccc5)cc4)cc32)cc1 [I-15, 4-bromo-1-(4-(dimethylcarbamoyl)benzyl)-6-(4-phenoxyphenyl-thio)-1H-indole-2-carboxylic acid] | B (an affinity (R3/R0) between 100% and 20%)
300 to 800 | OCc1nc2cc(OCc3ccccc3Cl)c(Cl)cc2[nH]1 [I-485, (5-chloro-6-(2-chlorobenzyloxy)-1H-benzo[d]imidazol-2-yl)methanol] | 
> 100 | CCn1c(CO)nc2cc(OCc3ccccc3)c(Cl)cc21 [I-487] | 
> 100 | CCn1c(CO)nc2cc(Cl)c(OCc3ccccc3)cc21 [I-488] | 
10 to 100 | Nc1nonc1-c1nc2cc(Cl)c(Cl)cc2n1Cc1ccc(-c2nn[nH]n2)cc1 [I-490, 4-(1-(4-(2H-tetrazol-5-yl)benzyl)-5,6-dichloro-1H-benzo[d]imidazol-2-yl)-1,2,5-oxadiazol-3-amine] | 
> 100 | Nc1nonc1-c1nc2cc(Cl)c(Cl)cc2n1Cc1ccccc1 [I-491] | 
> 100 | (4-(2-(2-aminopyridin-4-yl)ethoxy)-5,6-dichloro-1H-benzo[d]imidazol-2-yl)methanol [I-182] | 

Molecule | IC50 [2] [µM] | ASMS (R3/R0) [1]
4-((6-chloro-4-(3,4-dichlorophenoxy)-1H-indol-1-yl)methyl)benzoic acid [I-146] | < 10 | B (an affinity (R3/R0) between 100% and 20%)
5,6-dichloro-4-(4-chlorobenzyloxy)-1H-benzo[d]imidazole-2-carboxylic acid [I-330] | > 100 | B (an affinity (R3/R0) between 100% and 20%)
CN(C)C(=O)c1ccc(Cn2c(C(=O)O)cc3cc(-c4ccccc4)c(Sc4ccc(Cl)c(Cl)c4)cc32)cc1 [I-2] | < 10 | B (an affinity (R3/R0) between 100% and 20%)
